# Tests used:
# [1] = tested on: Alzheimer's disease (AD) in patients over the age of 60; assay: Health care database study at three hospitals: frequency of AD by medication (ICD-9-CM codes); type: in vivo, human; conditions: for Prevalence Of AD/1000 Hines / Prevalence Of AD/1000 Loyola / Prevalence Of AD/1000 Phoenix / Prevalence Of AD/1000 Combined: patients 60 years or over; for Prevalence Of AD/1000 Hines: Hines Veterans Authority Medical Center; for Prevalence Of AD/1000 Loyola: Loyola Medical Center; for Prevalence Of AD/1000 Phoenix: Phoenix Veterans Authority Medical Center; for Prevalence Of AD/1000 Combined: data from the three sites combined; for effect on prevalence / risk of AD (in words): patients over the age of 60, compared with total patient population
# Text: To perform the study, relational databases at three different hospitals (Loyola Medical Center (“Loyola”), Hines Veterans Authority Medical Center (“Hines”), and Phoenix Veterans Authority Medical Center (“Phoenix”)) were searched to obtain aggregate data about the frequency of AD. Each database included clinical information that facilitated identification of potential relationships between specific items. […] Patient privacy was protected by using only aggregate patient data.
# Each database was sorted to exclude any subjects under the age of 60 and any entries that contained patients' names but no medical information pertinent to the study. This yielded a total patient sample size for the three databases of 63,296 patients.
# The frequency of AD for each medication was then determined using ICD-9-CM codes.
# Alzheimer's disease was identified under the ICD-9-CM code of 331.0, but because other codes also apply to AD, the codes 331.2, 290.0, 290.10-13, 290.20 and 290.3 were also included as AD cases based on interviews with the physicians at each center who diagnosed or oversaw the diagnosis of patients with AD and on their coding practices for AD. The diagnosis of AD was made according to the criteria of the National Institute of Neurological and Communicative Disorders and Stroke (NINCDS) and the Alzheimer's Disease and Related Disorders Association (ADRDA) Work Group (McKhann et al., “Clinical Diagnosis of Alzheimer's Disease: Report of the NINCDS-ADRDA Work Group under the Auspices of Department of Health and Human Services Task Force on Alzheimer's Disease,” Neurology, 34:939-944 (1984).) Each AD patient had received either a CT scan or MRI to exclude other diagnoses, and had been screened for other metabolic, toxic, or affective disorders that may produce dementia.
# Statistics were determined by comparisons of proportions using chi square analyses. All statistics listed P values and 95% confidence intervals.
# Alzheimer's disease (AD) = conditions: comparison figures, no source given; cited from earlier work
Compound,Prevalence Of AD/1000 Hines [1],Prevalence Of AD/1000 Loyola [1],Prevalence Of AD/1000 Phoenix [1],Prevalence Of AD/1000 Combined [1],effect on prevalence / risk of AD (in words) [1],"degree of reduction (of AD risk), other putative AD therapeutics (Alzheimer's disease (AD))"
"CC(C)NCC(O)COc1ccc(CC(N)=O)cc1 (stereo not shown) [Atenolol, atenolol]",7.1 /1000,19.2 /1000,19.0 /1000,14.8 /1000,higher than that of the total patient cohort,
"C[C@H](CS)C(=O)N1CCC[C@H]1C(=O)O [Captopril, captopril]",8.4 /1000,13.6 /1000,10.6 /1000,10.6 /1000,did not show any significant reduction,
"NS(=O)(=O)c1cc(C(=O)O)c(NCc2ccco2)cc1Cl [Furosemide, furosemide]",9.0 /1000,16.7 /1000,14.1 /1000,8.9 /1000,did not show any significant reduction,
"COCCc1ccc(OCC(O)CNC(C)C)cc1 (stereo not shown) [Metoprolol, metoprolol]",4.4 /1000,15.3 /1000,12.4 /1000,12.1 /1000,higher than that of the total patient cohort,
"CC[C@H](C)C(=O)O[C@H]1C[C@H](O)C=C2C=C[C@H](C)[C@H](CC[C@@H](O)C[C@@H](O)CC(=O)O)[C@H]21 [Pravastatin, 1-naphthalene-hepatnoic acid, 1,2,6,7,8,8a-hexahydro-β,δ,6-trihydroxy-2-methyl-8-(2-methyl-1-oxobutoxy)]",1.1 /1000,0 /1000,8.3 /1000,4.3 /1000,,
"CC(C)NCC(O)COc1cccc2ccccc12 (stereo not shown) [Propanolol, propanolol]",3.9 /1000,42.4 /1000,20.7 /1000,17.5 /1000,higher than that of the total patient cohort,
"CCC(C)(C)C(=O)O[C@H]1C[C@@H](C)C=C2C=C[C@H](C)[C@H](CC[C@@H]3C[C@@H](O)CC(=O)O3)[C@H]21 [Simvastatin, simvastatin]",,8.1 /1000,11.2 /1000,11.2 /1000,,
Cc1c(C)c2c(c(C)c1O)CC[C@@](C)(CCC[C@H](C)CCC[C@H](C)CCCC(C)C)O2 [alpha-tocopherol],,,,,,52%
estrogen,,,,,,25-31%

# Source: patent publication US6472421B1, “Methods for treating, preventing, and reducing the risk of the onset of alzheimer's disease using an HMG CoA reductase inhibitor” (Nymox Corporation, priority 1998, dated 2002)
